Laboratory results taken from article PMC3885398, “Evaluation of the Antitumor Effects of BPR1J-340, a Potent and Selective FLT3 Inhibitor, Alone or in Combination with an HDAC Inhibitor, Vorinostat, in AML Cancer” (PLoS ONE, 2014).

Legend:
[1] = molecular target: T1, FLT3 (wild-type, residues Y567-S993) (Homo sapiens, UniProt P36888); test: FLT3 Kinase-Glo kinase assay; type: biochemical
T1 construct: FLT3 (residues Y567-S993); made in house
Procedure: All inhibitors were dissolved in dimethylsulfoxide (DMSO) at a stock concentration of 10 mM. […] The preparation of recombinant proteins, FLT3 (residues Y567-S993), VEGFR1 (residues R781-I1338) and VEGFR2 (residues V789-V1356), for biochemical kinase assay was described previously [29].
The FLT3 and VEGFR1/2 Kinase-Glo kinase assays were performed as reported by our earlier study [30].

FLT3-ITD = FLT3-ITD (Homo sapiens, UniProt P36888); test: FLT3 phosphorylation in MV4;11 cells, Western blot; type: cell-based; conditions: 1 hour
Procedure: (§1) Cells were lysed in lysis buffer (50 mM Tris, pH 8.0, 150 mM NaCl, 1% Triton X-100, 0.5% sodium deoxycholate, 0.1% SDS, 1 mM sodium orthovanadate, 1 mM PMSF, and 1 mM DTT). Protein lysates were resolved by SDS-PAGE and transferred onto a polyvinylidene difluoride (PVDF) membrane (Millipore, Bedford, MA, USA). The membranes were immunoblotted with appropriate antibodies and detected using the SuperSignal reagent (Pierce, Rockford, IL, USA) followed by exposure to X-ray film.
(§2) To address whether BPR1J-340 was able to inhibit the FLT3 signaling pathway in FLT3-driven cells, MV4;11 cells were treated with different concentrations of BPR1J-340 for 1 hour, and the phosphorylation status of FLT3 and STAT5 (Signal Transducer and Activator of Transcription 5), a critical down-stream modulator that plays a major role in FLT3-ITD signal transduction for cell expansion and survival, was examined by Western blot analysis. […] To investigate the difference in sensitivity between FLT3-WT and the activating mutants FLT3-ITD and FLT3-D835Y to BPR1J-340, HEK293T cells engineered to express FLT3-WT or mutants FLT3 (FLT3-ITD, FLT3-D835Y) were analyzed. […]
(§3) Figure 2 BPR1J-340 inhibits FLT3-dependent signaling. […] The phosphorylation status of FLT3 and STAT5 were evaluated by Western blot analysis. […] The FLT3 phosphorylation status in the transfected cells was evaluated by Western blot analysis.

STAT5 phosphorylation = STAT5 phosphorylation in MV4;11 cells, Western blot; type: cell-based; conditions: Homo sapiens, 1 hour
Procedure: as §1, §2, §3

[2] = system: STAT5 phosphorylation at Tyr694; test: STAT5 phosphorylation at Tyr694 in MOLM-13 cells, Western blot; type: cell-based, human; conditions: MOLM-13, 20 hours, Fig. 4D
Procedure: as §1
Some histone deacetylase inhibitors (HDACi) will enhance the cytotoxic activity of FLT3 inhibitor on FLT3-ITD^+ cell via degradation of FLT3-ITD and STAT5 [24], [26], [36], [37]. To determine whether SAHA, an HDACi, can synergize with BPR1J-340 to enhance cytotoxicity in FLT3-ITD expressing cells by interfering with the FLT3-ITD and STAT5 axis, the combined effects of SAHA and BPR1J-340 on cytotoxicity were examined. The cell growth rate of MOLM-13 and MV4;11 with SAHA and BPR1J-340 combinational treatment was decreased compared with the single-drug treatment (Fig. 4A). […]
Figure 4 The effect of BPR1J-340 and SAHA versus drug combination on AML FLT3-ITD+ cells. […] (A) Viable cells were counted after staining with trypan blue dye at indicated time point (B) At 48-hours after treatment, cells were stained with FITC-labeled annexin V and propidium iodide and percentages of apoptotic cells were analyzed by flow cytometry. […]

Chain of FLT3-ITD (P36888 27-993, change not shown): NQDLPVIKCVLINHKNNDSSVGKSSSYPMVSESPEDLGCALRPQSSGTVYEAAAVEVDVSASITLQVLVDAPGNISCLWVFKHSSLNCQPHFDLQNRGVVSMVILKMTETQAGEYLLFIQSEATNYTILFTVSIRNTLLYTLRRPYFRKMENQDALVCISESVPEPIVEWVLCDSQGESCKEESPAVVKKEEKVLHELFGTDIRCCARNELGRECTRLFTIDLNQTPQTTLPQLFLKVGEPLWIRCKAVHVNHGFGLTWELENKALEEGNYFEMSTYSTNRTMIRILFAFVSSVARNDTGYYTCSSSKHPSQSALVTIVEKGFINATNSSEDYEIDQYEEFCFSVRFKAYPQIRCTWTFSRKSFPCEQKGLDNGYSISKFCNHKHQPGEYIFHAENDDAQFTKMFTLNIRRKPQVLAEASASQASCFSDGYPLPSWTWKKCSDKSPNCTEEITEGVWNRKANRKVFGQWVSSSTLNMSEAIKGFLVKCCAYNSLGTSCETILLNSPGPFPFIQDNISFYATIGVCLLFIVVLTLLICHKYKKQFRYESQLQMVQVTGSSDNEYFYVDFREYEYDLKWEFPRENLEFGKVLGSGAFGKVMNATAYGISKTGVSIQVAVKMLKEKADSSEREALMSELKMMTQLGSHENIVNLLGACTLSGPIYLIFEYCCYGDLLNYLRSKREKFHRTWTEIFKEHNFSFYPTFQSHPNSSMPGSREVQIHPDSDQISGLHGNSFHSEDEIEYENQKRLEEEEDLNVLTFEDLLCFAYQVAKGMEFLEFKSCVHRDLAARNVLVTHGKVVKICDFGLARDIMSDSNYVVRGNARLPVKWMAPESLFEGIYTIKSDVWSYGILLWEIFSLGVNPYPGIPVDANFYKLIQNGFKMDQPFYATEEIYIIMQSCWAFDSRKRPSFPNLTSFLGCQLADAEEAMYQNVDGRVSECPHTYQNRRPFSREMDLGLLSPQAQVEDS
T1 sequence (P36888 567-993): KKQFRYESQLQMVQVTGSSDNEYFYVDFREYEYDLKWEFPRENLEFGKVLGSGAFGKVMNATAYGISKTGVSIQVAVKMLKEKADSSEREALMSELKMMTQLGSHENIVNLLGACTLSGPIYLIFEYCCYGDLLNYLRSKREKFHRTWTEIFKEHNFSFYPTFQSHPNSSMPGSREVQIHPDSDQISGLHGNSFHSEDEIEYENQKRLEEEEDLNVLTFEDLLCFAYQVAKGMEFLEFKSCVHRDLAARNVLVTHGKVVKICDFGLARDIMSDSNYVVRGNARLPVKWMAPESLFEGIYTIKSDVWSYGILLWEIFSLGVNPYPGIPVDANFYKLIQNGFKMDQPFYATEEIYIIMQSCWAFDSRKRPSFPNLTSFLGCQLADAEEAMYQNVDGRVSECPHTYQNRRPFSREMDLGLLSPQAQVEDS

Compound CCc1cc(NC(=O)NCc2ccc(-c3cc(NC(=O)c4ccc(CN5CCN(C)CC5)cc4)[nH]n3)cc2)no1 [BPR1J-340, N1-(3-4-[([(5-ethyl-3-isoxazolyl)amino]carbonylamino)methyl]phenyl-1H-5-pyrazolyl)-4-[(4-methylpiperazino)methyl]benzamide] has an IC50 [1] of 29 ± 5 nM, an IC50 (FLT3-ITD) of about 1 nM and an IC50 (STAT5 phosphorylation) of about 1 nM. For the same compound, the “STAT5 phosphorylation at Tyr694” value [2] was “completely block”.
